Reference: US8399681B2, “Substituted aminothiazolone indazoles as estrogen related receptor-alpha modulators” (Janssen Pharmaceutica NV, priority 2009, dated 2013)

biological target: T1, ERR1 (also known as ERR-α or ERR-1) (Homo sapiens, UniProt P11474); test: TR-FRET assay (disruption of co-activator peptide binding); type: biochemical; details: 6His-tagged ERR1 LBD, GST-hSRC2 co-activator polypeptide; average of 3 independent experiments
T1 sequence (P11474 193-421 limits assumed): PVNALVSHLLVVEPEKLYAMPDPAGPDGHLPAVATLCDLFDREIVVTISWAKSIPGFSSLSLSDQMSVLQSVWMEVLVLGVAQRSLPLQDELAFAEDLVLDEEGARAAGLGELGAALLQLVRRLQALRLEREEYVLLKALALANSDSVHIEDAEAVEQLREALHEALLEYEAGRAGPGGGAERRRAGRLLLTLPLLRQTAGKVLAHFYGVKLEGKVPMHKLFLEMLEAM
In short: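 His6-ERR1 LBD (6 nM) with GST-SRC-2 peptide (6 nM), anti-GST Eu cryptate (30 nM) and anti-His XL665 (7.5 nM) in Tris pH 8/KCl/DTT/BSA buffer, equilibrated 4-18 h at 25 °C. Ex 340, em 615/665 nm; hyperbolic dose-response fit, mean of 3 experiments.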

Going from `CCOCCN1CCN(C2=NC(=O)/C(=C/c3ccc4c(cnn4Cc4ccc(C(F)(F)F)cc4C(F)(F)F)c3)S2)CC1` [Example 73, 5-[1-(2,4-Bis-trifluoromethyl-benzyl)-1H-indazol-5-ylmethylene]-2-[4-(2-ethoxy-ethyl)-piperazin-1-yl]-thiazol-4-one] to `CCOCCN1CCN(C2=NC(=O)/C(=C/c3ccc4c(cnn4Cc4ccc(Cl)cc4C(F)(F)F)c3)S2)CC1` [Example 81, 5-[1-(4-Chloro-2-trifluoromethyl-benzyl)-1H-indazol-5-ylmethylene]-2-[4-(2-ethoxy-ethyl)-piperazin-1-yl]-thiazol-4-one], the EC50 falls from 172 nM to 68.8 nM (2.5-fold).

`CC1(C(=O)O)CCN(C2=NC(=O)/C(=C/c3ccc4c(cnn4Cc4ccc(C(F)(F)F)cc4C(F)(F)F)c3)S2)CC1` [Example 74, 1-{5-[1-(2,4-Bis-trifluoromethyl-benzyl)-1H-indazol-5-ylmethylene]-4-oxo-4,5-dihydro-thiazol-2-yl}-4-methyl-piperidine-4-carboxylic acid] and `CC1(C(=O)O)CCN(C2=NC(=O)/C(=C/c3ccc4c(cnn4Cc4ccc(Cl)cc4C(F)(F)F)c3)S2)CC1` [Example 75, 1-{5-[1-(4-Chloro-2-trifluoromethyl-benzyl)-1H-indazol-5-ylmethylene]-4-oxo-4,5-dihydro-thiazol-2-yl}-4-methyl-piperidine-4-carboxylic acid] are within 1.5-fold of each other in EC50: 56.2 nM for the first, 73.4 nM for the second.

First: O=C1N=C(N2CCCN(CCO)CC2)S/C1=C\c1ccc2c(cnn2Cc2ccc(Cl)cc2C(F)(F)F)c1 [Example 76, 5-[1-(4-Chloro-2-trifluoromethyl-benzyl)-1H-indazol-5-ylmethylene]-2-[4-(2-hydroxy-ethyl)-[1,4]diazepan-1-yl]-thiazol-4-one]
Second: NC(=O)CN1CCN(C2=NC(=O)/C(=C/c3ccc4c(cnn4Cc4ccc(Cl)cc4C(F)(F)F)c3)S2)CC1 [Example 79, 2-(4-{5-[1-(4-Chloro-2-trifluoromethyl-benzyl)-1H-indazol-5-ylmethylene]-4-oxo-4,5-dihydro-thiazol-2-yl}-piperazin-1-yl)-acetamide]
The EC50 of the first is 2-fold higher: 18.3 nM for the first, 9 nM for the second.

Compared with `NC1CN(C2=NC(=O)/C(=C/c3ccc4c(cnn4Cc4ccc(C(F)(F)F)cc4C(F)(F)F)c3)S2)C1` [Example 77, 2-(3-Amino-azetidin-1-yl)-5-[1-(2,4-bis-trifluoromethyl-benzyl)-1H-indazol-5-ylmethylene]-thiazol-4-one], `CN1C[C@H]2CC[C@@H](C1)N2C1=NC(=O)/C(=C/c2ccc3c(cnn3Cc3ccc(C(F)(F)F)cc3C(F)(F)F)c2)S1` [Example 86, 5-[1-(2,4-Bis-trifluoromethyl-benzyl)-1H-indazol-5-ylmethylene]-2-(3-methyl-3,8-diaza-bicyclo[3.2.1]oct-8-yl)-thiazol-4-one] is 2.9-fold lower in EC50: 58.7 nM for the first, 20 nM for the second. The second is the more potent here.

Compared with `CN1C[C@@H]2C[C@H]1CN2C1=NC(=O)/C(=C/c2ccc3c(cnn3Cc3ccc(Cl)cc3C(F)(F)F)c2)S1` [Example 78, 5-[1-(4-Chloro-2-trifluoromethyl-benzyl)-1H-indazol-5-ylmethylene]-2-(5-methyl-2S,5S-diaza-bicyclo[2.2.1]hept-2-yl)-thiazol-4-one], `COCCN1C[C@@H]2C[C@H]1CN2C1=NC(=O)/C(=C/c2ccc3c(cnn3Cc3ccc(Cl)cc3C(F)(F)F)c2)S1` [Example 85, 5-[1-(4-Chloro-2-trifluoromethyl-benzyl)-1H-indazol-5-ylmethylene]-2-[5-(2-methoxy-ethyl)-2S,5S-diaza-bicyclo[2.2.1]hept-2-yl]-thiazol-4-one] is 1.9-fold higher in EC50: 4.5 nM for the first, 8.6 nM for the second.

`O=C1N=C(N2C[C@@H]3C[C@H]2CN3CCO)S/C1=C\c1ccc2c(cnn2Cc2ccc(Cl)cc2C(F)(F)F)c1` [Example 80, 5-[1-(4-Chloro-2-trifluoromethyl-benzyl)-1H-indazol-5-ylmethylene]-2-[5-(2-hydroxy-ethyl)-2S,5S-diaza-bicyclo[2.2.1]hept-2-yl]-thiazol-4-one] and `COCC(=O)N1C[C@@H]2C[C@H]1CN2C1=NC(=O)/C(=C/c2ccc3c(cnn3Cc3ccc(Cl)cc3C(F)(F)F)c2)S1` [Example 89, 5-[1-(4-Chloro-2-trifluoromethyl-benzyl)-1H-indazol-5-ylmethylene]-2-[5-(2-methoxy-acetyl)-2S,5S-diaza-bicyclo[2.2.1]hept-2-yl]-thiazol-4-one] are within 1.5-fold of each other in EC50: 5.7 nM for the first, 4.7 nM for the second.

`CNC(=O)CN1CCN(C2=NC(=O)/C(=C/c3ccc4c(cnn4Cc4ccc(Cl)cc4C(F)(F)F)c3)S2)CC1` [Example 82, 2-(4-{5-[1-(4-Chloro-2-trifluoromethyl-benzyl)-1H-indazol-5-ylmethylene]-4-oxo-4,5-dihydro-thiazol-2-yl}piperazin-1-yl)-N-methyl-acetamide] and `COCC(=O)N1CCN(C2=NC(=O)/C(=C/c3ccc4c(cnn4Cc4ccc(Cl)cc4C(F)(F)F)c3)S2)CC1` [Example 91, 5-[1-(4-Chloro-2-trifluoromethyl-benzyl)-1H-indazol-5-ylmethylene]-2-[4-(2-methoxy-acetyl)-piperazin-1-yl]-thiazol-4-one] are within 1.5-fold of each other in EC50: 7.6 nM for the first, 8.7 nM for the second.

`C[C@@H]1CNCCN1C1=NC(=O)/C(=C/c2ccc3c(cnn3Cc3ccc(Cl)cc3C(F)(F)F)c2)S1` [Example 83, 5-[1-(4-Chloro-2-trifluoromethyl-benzyl)-1H-indazol-5-ylmethylene]-2-(2-(R)-methyl-piperazin-1-yl)-thiazol-4-one] and `O=C1N=C(N2CC3CC2CN3)S/C1=C\c1ccc2c(cnn2Cc2ccc(Cl)cc2C(F)(F)F)c1` [Example 100, 5-[1-(4-Chloro-2-trifluoromethyl-benzyl)-1H-indazol-5-ylmethylene]-2-(2S,5S-diaza-bicyclo[2.2.1]hept-2-yl)-thiazol-4-one] are within 1.5-fold of each other in EC50: 15 nM for the first, 14 nM for the second.

Going from `CC(C)(C)N1CCN(C2=NC(=O)/C(=C/c3ccc4c(cnn4Cc4ccc(Cl)cc4C(F)(F)F)c3)S2)CC1` [Example 84, 2-(4-tert-Butyl-piperazin-1-yl)-5-[1-(4-chloro-2-trifluoromethyl-benzyl)-1H-indazol-5-ylmethylene]-thiazol-4-one] to `CN1C2CCC1CN(C1=NC(=O)/C(=C/c3ccc4c(cnn4Cc4ccc(Cl)cc4C(F)(F)F)c3)S1)C2` [Example 101, 5-[1-(4-Chloro-2-trifluoromethyl-benzyl)-1H-indazol-5-ylmethylene]-2-(8-methyl-3,8-diaza-bicyclo[3.2.1]oct-3-yl)-thiazol-4-one], the EC50 falls from 39 nM to 21.4 nM (1.8-fold). The second is the more potent here.

First: CN1C[C@H]2CC[C@@H](C1)N2C1=NC(=O)/C(=C/c2ccc3c(cnn3Cc3ccc(Cl)cc3C(F)(F)F)c2)S1 [Example 87, 5-[1-(4-Chloro-2-trifluoromethyl-benzyl)-1H-indazol-5-ylmethylene]-2-(3-methyl-3,8-diaza-bicyclo[3.2.1]oct-8-yl)-thiazol-4-one]
Second: O=C1N=C(N2C[C@@H](O)[C@H](O)C2)S/C1=C\c1ccc2c(cnn2Cc2ccc(Cl)cc2C(F)(F)F)c1 [Example 99, 5-[1-(4-Chloro-2-trifluoromethyl-benzyl)-1H-indazol-5-ylmethylene]-2-(3R,4R-dihydroxy-pyrrolidin-1-yl)-thiazol-4-one]
The EC50 of the first is 5.4-fold higher: 15 nM for the first, 2.8 nM for the second. The second is the more potent here.

First: COCC(=O)N1[C@H](C)CN(C2=NC(=O)/C(=C/c3ccc4c(cnn4Cc4ccc(Cl)cc4C(F)(F)F)c3)S2)C[C@@H]1C [Example 88, 5-[1-(4-Chloro-2-trifluoromethyl-benzyl)-1H-indazol-5-ylmethylene]-2-[4-(2-methoxy-acetyl)cis-3,5-dimethyl-piperazin-1-yl]-thiazol-4-one]
Second: COCC(=O)N1CCN(C2=NC(=O)/C(=C/c3ccc4c(cnn4Cc4ccc(Cl)cc4C(F)(F)F)c3)S2)[C@H](C)C1 [Example 90, 5-[1-(4-Chloro-2-trifluoromethyl-benzyl)-1H-indazol-5-ylmethylene]-2-[4-(2-methoxy-acetyl)-2-(R)-methyl-piperazin-1-yl]-thiazol-4-one]
The EC50 of the first is 3.8-fold higher: 13 nM for the first, 3.4 nM for the second. The second is the more potent here.

Compared with `NC1CN(C2=NC(=O)/C(=C/c3ccc4c(cnn4Cc4ccc(Cl)cc4C4CC4)c3)S2)C1` [Example 92, 2-(3-Amino-azetidin-1-yl)-5-[1-(4-chloro-2-cyclopropyl-benzyl)-1H-indazol-5-ylmethylene]-thiazol-4-one], `O=C1N=C(N2CC(C(=O)O)C2)S/C1=C\c1ccc2c(cnn2Cc2ccc(Cl)cc2C2CC2)c1` [Example 94, 1-(5-[1-(4-Chloro-2-cyclopropyl-benzyl)-1H-indazol-5-ylmethylene]-4-oxo-dihydro-thiazol-2-yl)-azetidine-3-carboxylic acid] is 1.9-fold lower in EC50: 49 nM for the first, 26 nM for the second. The second is the more potent here.

`CN1CCN(C2=NC(=O)/C(=C/c3ccc4c(cnn4Cc4ccc(Cl)cc4C4CC4)c3)S2)CC1` [Example 93, 5-[1-(4-Chloro-2-cyclopropyl-benzyl)-1H-indazol-5-ylmethylene]-2-(4-methyl-piperazin-1-yl)-thiazol-4-one] and `CN1CCN(C2=NC(=O)/C(=C/c3ccc4c(cnn4Cc4ccc(Cl)cc4Br)c3)S2)CC1` [Example 95, 5-[1-(2-bromo-4-chlorobenzyl)-1H-indazol-5-ylmethylene]-2-(4-methyl-piperazin-1-yl)-thiazol-4-one] are within 1.5-fold of each other in EC50: 14.4 nM for the first, 11 nM for the second.

First: CN1CCN(C2=NC(=O)/C(=C/c3ccc4c(cnn4Cc4ccc(Cl)cc4I)c3)S2)CC1 [Example 96, 5-[1-(4-Chloro-2-iodo-benzyl)-1H-indazol-5-ylmethylene]-2-(4-methyl-piperazin-1-yl)-thiazol-4-one]
Second: CC(=O)c1cc(Cl)ccc1Cn1ncc2cc(/C=C3\SC(N4CCN(C)CC4)=NC3=O)ccc21 [Example 97, 5-[1-(2-Acetyl-4-chloro-benzyl)-1H-indazol-5-ylmethylene]-2-(4-methyl-piperazin-1-yl)-thiazol-4-one]
The EC50 of the first is 2.2-fold higher: 64 nM for the first, 29 nM for the second. The second is the more potent here.
